Measured values taken from patent US20240285594A1, “COMPOSITIONS AND METHODS FOR TREATING PAIN IN ANIMALS” (North Carolina State University, priority 2023, published 2024).

Columns and labels:
cortisol = assay: Serum cortisol after surgical or sham castration of piglets (Part I, physiological assessment); assay type: in vivo; conditions: 1 h post-castration, castrated piglets, compared to C (saline) and CL, FM 2.2 mg/kg intranasal, buffered lidocaine intra-inguinal
Method: A total of 197 Large White×Duroc cross male piglets from 35 litters were enrolled in the study (Table 1). Piglets were individually identified using ear tags (Allflex Global Piglet ear tags, Allflex Livestock Intelligence, Madison, WI), weighed and randomly allocated to one of eight treatment groups (FIG. 1).
Lidocaine was buffered by mixing 2 ml of 8.4% Sodium Bicarbonate to 20 ml of 2% lidocaine HCl injectable solution to achieve a pH of 6.8 (Lidocaine Hydrochloride, Covetrus, Dublin, Ohio, US). […] Piglets were held by both rear legs by one caretaker with the abdomen facing the individual administrating treatment. Buffered lidocaine was injected intra-inguinally (Picture 1) by a second caretaker using a ½ inch needle (Ideal® D3 20 Gauge, Neogen, Lansing, MI) inserted into a syringe (Prima Tech® 2 cc Bottle Mount Vaccinator, Prima Tech USA, Kenansville, NC). A total of 1.5 ml of buffered lidocaine per injection site was administered intramuscularly (IM) into each inguinal canal (left and right) at a 40-degree angle 5-7 cm from the scrotum and 2-3 cm from the abdominal wall. Piglets enrolled in the control treatment (C, S, CF, SF−T1: (C) Castration plus physiological saline (IM and IN; n=25); T2: (S) Sham plus physiological saline (IM and IN; n=25); T5: (CF) Castration plus flunixin (IN; n=25); T6: (SF) Sham plus flunixin (IN; n=24)) were handled in an identical manner and 1.5 ml of sterile saline was injected in the same two locations as described previously.
Immediately following intra-inguinal injection, piglets enrolled in the FM treatment groups were held in sternal recumbency by one individual and 2.2 mg/kg (Banamine®, Merck Animal Health, Madison, NJ, US) was administered in one nostril using was a MAD® nasal intranasal mucosal atomization device (Telefex Incorporated, Wayne, PA, US) attached to a Prima Tech® 0.5 cc bottle mount vaccinator. The same individual administered the treatment by gently holding the piglet's snout using their non-dominant hand to steady the head and administered the drug with the other hand. Piglets in the control group were handled in the same manner in an equivalent volume of 0.2 ml of sterile saline was administered as described above.
Castration was performed by one trained caretaker from the farm. Piglets were picked up, individually held by both hind legs with head down, and two vertical incisions were made through the skin of the scrotum over each testicle using a scalpel blade. Once the incisions were made, testicles were exposed, spermatic cords cut, and testicles were completely removed by traction. A sham castration was performed to mimic similar handling conditions in which piglets were picked up, held in the same manner, and had pressure applied to the scrotal area by the same individual responsible for castration.
Blood was collected 24 h prior to (−24 h), 1 h (1 h), and 24 h post castration (24 h, FIG. 2). Blood samples were collected using the technique described in other studies. The orbital sinus cavity was punctured using an Excel® disposable hypodermic needle 20G (Exel International, Quebec, Canada) and deposited into a 4 ml BD® red vacutainer serum tube (Med Vet International, Mettawa, IL). All tubes were maintained in a cooler and centrifuged (2,000×g for 15 min at 4° C.) no more than eight hours post-collection to separate serum. […]
Serum cortisol concentrations were quantified using a commercially available EIA kit (Arbor Assays DetectX Cortisol EIA Kit, Product #K003). […]

[1] = UPAPS behavioral pain scoring and rescue analgesia after castration (Part II); assay type: in vivo, piglets; conditions: -1 h, 0 h and +3 h relative to castration; compared to C (saline)
Method: Behavior scoring was obtained in real-time by observing each piglet for 4-min continuously using Unesp-Botucatu pig acute pain scale (UPAPS). Each piglet was scored by one trained observer at the following timepoints: 1 h before castration (−1 h), immediately post-castration (0 h), and 3 h post-castration (+3 h, FIG. 3). The 4-min sampling time was obtained from the methodology previously validated. Treatments were masked, randomized, and applied to each piglet by a senior researcher. The Unesp-Botucatu UPAPS scale evaluates five behavioral items, with each item divided into four descriptive levels. A numerical score was designated from “0” to “3”, with a “0” representing normal behavior (free of pain) and “3” corresponding to pronounced behavioral deviation (severe pain). Therefore, for each timepoint, piglets may receive a score ranging from 0 (min) to 15 (max; Table 3). Total pain scores were then calculated for each piglet per timepoint. […] This is most referred to rescue analgesia in the literature; and was conducted for each behavioral assessment. Total counts were calculated for piglets identified as requiring or not requiring rescue analgesia by treatment and timepoint. […]

prostaglandin E2 (PGE2) = assay: Serum PGE2 after castration of piglets (Example 3); assay type: in vivo; conditions: intra-inguinal lidocaine; any time point
Method: Pairwise comparisons of treatments at −24 h: P≥0.77. […] Pairwise comparisons of treatments at 24 h post-castration: P≥0.11.
The objective of this study was to evaluate the effects of intranasal flunixin and intra-inguinal lidocaine application on the castration associated inflammatory response in piglets, as described in Example 1.

In the case of CCN(CC)CC(=O)Nc1c(C)cccc1C [Buffered lidocaine, lidocaine], the cortisol concentrations (cortisol) is reported as “no effect”, the cortisol concentrations (cortisol; listed as CL) is reported as “not different” and the “total UPAPS scores” value [1] is reported as “no effect”. The “inflammation (PGE2)” value (prostaglandin E2 (PGE2)) was “did not mitigate inflammation”.
